Reference: article PMC12284294 (iScience, 2025)

What was measured:
FPR1, FPR2, FPR3, PMN = assay type: cell-based, human
[1] = test system: human polymorphonuclear granulocytes (PMN; neutrophils); assay type: cell-based
FPR1 = biological target: T1, FPR1 (Homo sapiens, UniProt P21462); assay type: cell-based
T1 construct: expressed in transfected cells; host or cells: HEK293T
T1 sequence (P21462 1-350): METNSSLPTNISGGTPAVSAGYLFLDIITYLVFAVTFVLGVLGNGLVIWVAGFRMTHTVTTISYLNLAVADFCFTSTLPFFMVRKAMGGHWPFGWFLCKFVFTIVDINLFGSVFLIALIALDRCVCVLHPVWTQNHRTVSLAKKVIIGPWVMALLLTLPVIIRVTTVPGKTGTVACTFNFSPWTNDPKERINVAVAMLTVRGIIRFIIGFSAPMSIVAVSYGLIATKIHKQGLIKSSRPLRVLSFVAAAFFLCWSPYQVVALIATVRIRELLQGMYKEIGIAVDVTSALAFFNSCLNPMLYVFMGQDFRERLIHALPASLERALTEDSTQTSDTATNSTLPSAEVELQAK

GCLIGAEYVNNSYEC [Omicron Variant SCoV2_52, 15mer of Omicron spike pool library]
Match with activator (region): Receptor (FPR1, FPR2, FPR3, PMN): PMN + FPR1
significant PMN activators (group of the spike peptide pool screening) ([1]; SARS-CoV-2 omicron B.1.1.529 spike pool peptides, 10 µM, PMN, n=6): significant PMN activators
neutrophil calcium mobilization in library screening ([1]; individual peptides 10 μM, n = 6): activator
significant FPR1 activators (group of the spike peptide pool screening) (FPR1): significant FPR1 activators
FPR1 calcium activation in library screening (FPR1; individual peptides 10 μM, n = 3): activator
